Test system: TNFα production
Test: Lipopolysaccharide (LPS)-induced TNFα production in rats (Rat LPS assay, serum TNFα ELISA)
Assay type: in vivo, Lewis rats
Settings: 20 mpk (IP)

Compound	inhibition at 20 mg/kg
C=CCNc1sc2c(-c3ccc(Br)cc3)c(C#N)c(N)nc2c1C#N [Example 224, 2-(allylamino)-5-amino-7-(4-bromophenyl)thieno[3,2-b]pyridine-3,6-dicarbonitrile]	60%
N#Cc1c(N)nc2c(c1-c1cccnc1)CCCCCC2 [Example 225, 2-amino-4-pyridin-3-yl-5,6,7,8,9,10-hexahydrocycloocta[b]pyridine-3-carbonitrile]	88%

Test system: U937 cell TNFα release
Test: U937 Cell TNFα Release Assay (LPS-stimulated, TNFα ELISA)
Assay type: cell-based
Settings: Homo sapiens, U-937, U937 cells
Procedure: U937 Cell TNFα Release Assay
The human monocyte-like cell line, U937 (ATCC #CRL-1593.2), is cultured in RPMI1640 media with 10% heat-inactivated fetal calf serum (GIBCO), glutamine and pen/strep at 37° C. and 5% CO2. Differentiation of U937 to monocytic/macrophage-like cells is induced by the addition of phorbol12-myristate 13-acetate (Sigma) at final concentration of 20 ng/ml to a culture of U937 cells at ˜0.5 million cells/ml and incubated for 24 hrs. The cells are centrifuged, washed with PBS and resuspended in fresh media without PMA and incubated for 24 hrs. Cells adherent to the culture flask are harvested by scraping, centrifugation, and resuspended in fresh media to 2 million cells/ml, and 0.2 ml is aliquoted to each of 96 wells in flat-bottom plate. Cells are then incubated for an additional 24 hrs to allow for recovery. […]
ELISA plates (NUNC-Immuno™ Plate Maxisorb™ Surface) were coated with purified mouse monoclonal IgG1 anti-human TNFα antibody (R&D Systems #MAB610; 1.25 ug/ml in sodium bicarbonate pH 8.0, 0.1 ml/well) and incubated at 4° C. […] Enzymatic conversion of ABTS to colored product was measured after 5-30 minutes using a SpectroMax 340 spectrophotometer (Molecular Devices) at 405 nm. TNF levels were quantitated from a recombinant human TNFα (R&D Systems #210-TA-010) standard curve using a quadratic parameter fit generated by SoftMaxPRO software. […]

Compound	IC50
C=CCNc1sc2c(-c3ccc(Br)cc3)c(C#N)c(N)nc2c1C#N [Example 224, 2-(allylamino)-5-amino-7-(4-bromophenyl)thieno[3,2-b]pyridine-3,6-dicarbonitrile]	2.9 µM
N#Cc1c(N)nc2c(c1-c1cccnc1)CCCCCC2 [Example 225, 2-amino-4-pyridin-3-yl-5,6,7,8,9,10-hexahydrocycloocta[b]pyridine-3-carbonitrile]	6.9 µM

Biological target: Recombinant MAPKAPK2 (Homo sapiens, UniProt P49137)
Test: Determination of MK-2 IC50 (HSP-peptide phosphorylation, anion exchange resin capture assay)
Assay type: biochemical
Settings: MK-2 Avg. IC50, Table I, aminocyanopyridine MK-2 inhibitors
Procedure: The phosphorylation of HSP-peptide ([…]) by MAPKAPK2 was measured using an anion exchange resin capture assay method. […] The reaction was terminated and [γ^33P]ATP was removed from solution by the addition of 150 μl of AG 1×8 ion exchange resin in 900 mM sodium formate pH 3.0. A 50 μl aliquot of head volume was removed from the quenched reaction mixture and added to a 96-well plate, 150 μl of Microscint-40 (Packard) was added and the amount of phosphorylated-peptide was determined. Allow the Microscint to sit in the plates for 60 minutes prior to counting.
Compounds are evaluated as potential inhibitors of the MK2 kinase by measuring their effects on MK2 phosphorylation of the peptide substrate. Compounds may be screened initially at two concentrations prior to determination of IC50 values. Screening results are expressed as percent inhibition at the concentrations of compound tested. For IC50 value determinations, compounds are tested at six concentrations in ten-fold serial dilutions with each concentration tested in triplicate. Results are expressed as IC50 values in micromolar. The assay is performed at a final concentration of 2% DMSO.

Recombinant MAPKAPK2, sequence (P49137 whole entry, species assumed): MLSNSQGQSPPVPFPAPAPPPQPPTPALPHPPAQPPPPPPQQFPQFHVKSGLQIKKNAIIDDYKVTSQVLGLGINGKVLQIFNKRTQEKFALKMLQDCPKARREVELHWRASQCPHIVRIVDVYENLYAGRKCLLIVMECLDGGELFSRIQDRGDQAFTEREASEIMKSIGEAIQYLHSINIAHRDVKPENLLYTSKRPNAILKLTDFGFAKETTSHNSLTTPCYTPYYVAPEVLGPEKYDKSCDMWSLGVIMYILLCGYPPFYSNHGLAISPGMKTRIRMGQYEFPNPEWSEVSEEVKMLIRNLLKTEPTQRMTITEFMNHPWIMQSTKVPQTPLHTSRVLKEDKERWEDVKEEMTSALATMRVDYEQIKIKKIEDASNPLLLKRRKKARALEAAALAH

Compound	IC50
N#Cc1c(-c2c[nH]c(C(=O)O)c2)cc(-c2ccco2)nc1N [Example 76]	48.7 µM
CCCCC1Cc2c(nc(N)c(C#N)c2N)O1 (centres unmarked) [Example 77]	49.1 µM
CCOC(=O)c1ccc(-c2cc(-c3cnc[nH]3)c(C#N)c(N)n2)cc1 [Example 78]	49.1 µM
COc1cc(N)c(C#N)c(N)n1 [Example 79]	50.9 µM
N#Cc1ccc(-c2c(C#N)c(N)nc3c2CCc2[nH]ncc2-3)cc1 [Example 81]	52.1 µM
Cn1cccc1-c1cc(-c2ccco2)c(C#N)c(N)n1 [Example 83]	54.4 µM
N#Cc1c(-c2ccc(Oc3ccccc3)cc2)cc(-c2ccco2)nc1N [Example 85]	59.3 µM
N#Cc1c(N)nc2c(c1-c1cccnc1)CCc1n[nH]cc1-2 [Example 86]	62.5 µM
N#Cc1c(N)nc(SCC(=O)c2ccc(Cl)cc2)c(C#N)c1-c1ccco1 [Example 87]	63.3 µM
CC(C)(C)NS(=O)(=O)c1ccc(-c2cc(-c3ccccc3)c(C#N)c(N)n2)cc1 [Example 90]	68 µM
COc1ccnc(N)c1C#N [Example 91]	69.6 µM
N#Cc1c(-c2ccc(C(=O)O)cc2)cc(-c2ccco2)nc1N [Example 92]	59.8 µM
COc1ccc(OCC2Cc3c(nc(N)c(C#N)c3N)O2)cc1 (centres unmarked) [Example 93]	69.8 µM
COc1ccc(-c2cc(-c3ccccc3F)c(C#N)c(N)n2)cc1 [Example 94]	70.4 µM
CC(C)(C)NS(=O)(=O)c1ccc(-c2cc(-c3ccccc3F)c(C#N)c(N)n2)cc1 [Example 95]	71.5 µM
N#Cc1c(N)nc2c(c1N)Cc1cccc(OCC(=O)O)c1O2 [Example 96]	72.2 µM
N#Cc1ccc(-c2ccco2)nc1N [Example 98]	77.5 µM
N#Cc1c(N)nc2c(c1-c1ccco1)CCc1c(O)cccc1-2 [Example 101]	82.6 µM
N#Cc1c(-c2ccco2)cc(-c2c[nH]c3ccccc23)nc1N [Example 102]	87.1 µM
N#Cc1c(N)nc2c(c1-c1ccncc1)CCc1n[nH]cc1-2 [Example 103]	94.3 µM
N#Cc1c(-c2cccc(F)c2)cc(-c2ccc(O)cc2)nc1N [Example 104]	96 µM
N#Cc1c(N)nc2c(c1-c1ccccc1OC(F)F)CCc1[nH]ncc1-2 [Example 105]	96.1 µM

Compound	IC50
N#Cc1c(-c2ccco2)cc(-c2ccsc2)nc1N [Example 106]	97.3 µM
COc1ccc(-c2cc(-c3cccc(F)c3)c(C#N)c(N)n2)cc1 [Example 107]	97.3 µM
N#Cc1c(-c2ccccc2B(O)O)cc(-c2ccco2)nc1N [Example 108]	99.6 µM
CCCc1nc(N)c(C#N)c(N)c1C#N [Example 109]	99.8 µM
C#CCOCC1Cc2c(nc(N)c(C#N)c2N)O1 (centres unmarked) [Example 110]	105 µM
N#Cc1c(N)nc2c(c1N)CC(CO)O2 (centres unmarked) [Example 111]	106 µM
N#Cc1c(-c2ccc(C(F)(F)F)cc2)cc(-c2ccco2)nc1N [Example 112]	107 µM
CC1(C)Cc2n[nH]cc2-c2nc(N)c(C#N)c(-c3ccco3)c21 [Example 114]	109 µM
N#Cc1c(-c2ccccc2F)cc(-c2ccco2)nc1NCC(=O)O [Example 115]	114 µM
C=CCOCC1Cc2c(nc(N)c(C#N)c2N)O1 (centres unmarked) [Example 116]	118 µM
CC1Cc2c(nc(N)c(C#N)c2-c2ccco2)-c2ccccc21 (centres unmarked) [Example 117]	119 µM
COCC1Cc2c(nc(N)c(C#N)c2N)O1 (centres unmarked) [Example 118]	119 µM
N#Cc1c(-c2ccco2)cc(-c2c[nH]c3ccccc23)nc1N [Example 119]	120 µM
N#Cc1c(-c2ccco2)cc(-c2ccc(-n3ccnc3)cc2)nc1N [Example 120]	121 µM
N#Cc1c(-c2ccco2)cc(-c2ccc(O)cc2)nc1N [Example 121]	122 µM
N#Cc1c(N)nc2c(c1-c1ccco1)C1CCC2C1 (centres unmarked) [Example 122]	122 µM
CC(C)OCC1Cc2c(nc(N)c(C#N)c2N)O1 (centres unmarked) [Example 123]	125 µM
N#Cc1c(-c2ccco2)cc(-c2cccc(B(O)O)c2)nc1N [Example 124]	126 µM
N#Cc1c(-c2ccc(Br)cc2)cc(-c2ccco2)nc1N [Example 126]	130 µM
N#Cc1c(N)nc2c(c1N)CC(COC(F)(F)C(F)F)O2 (centres unmarked) [Example 127]	131 µM
N#Cc1c(-c2ccc(C(F)(F)F)cc2F)cc(-c2ccco2)nc1N [Example 128]	133 µM
COc1ccccc1-c1c(C#N)c(N)nc2c1CCc1n[nH]cc1-2 [Example 129]	136 µM

Compound	IC50
CC1Cc2n[nH]cc2-c2nc(N)c(C#N)c(-c3ccccc3F)c21 (centres unmarked) [Example 130]	142 µM
CCc1c(C#N)c(N)nc2[nH]nc(N)c12 [Example 131]	146 µM
N#Cc1c(-c2ccco2)cc(-c2ccccn2)nc1N [Example 132]	149 µM
N#Cc1c(-c2ccco2)cc(-c2cccc3cccc(O)c23)nc1N [Example 133]	153 µM
N#Cc1c(N)nc2c(c1-c1ccc(C(=O)O)cc1)CCc1[nH]ncc1-2 [Example 134]	155 µM
N#Cc1c(-c2ccco2)cc(-c2ccc(Cl)c(Cl)c2)nc1N [Example 135]	156 µM
N#Cc1c(-c2ccco2)cc(-c2ccc3c(c2)Nc2ccccc2S3)nc1N [Example 136]	158 µM
N#Cc1c(N)nc2ccccc2c1C(=O)O [Example 137]	161 µM
N#Cc1c(-c2ccccc2F)cc(-c2ccco2)nc1Nc1ccccc1 [Example 138]	162 µM
N#Cc1c(-c2cccc(F)c2)cc(-c2ccco2)nc1N [Example 139]	164 µM
N#Cc1c(-c2ccc(F)cc2)cc(-c2ccco2)nc1N [Example 140]	165 µM
CC(C)(C)OCC1Cc2c(nc(N)c(C#N)c2N)O1 (centres unmarked) [Example 141]	167 µM
N#Cc1c(-c2ccco2)cc(-c2nccs2)nc1N [Example 142]	167 µM
N#Cc1c(-c2ccccc2F)cc(-c2ccco2)nc1N1CCCCC1 [Example 143]	176 µM
N#Cc1c(-c2ccco2)cc(-c2ccc(Cl)cc2)nc1N [Example 144]	182 µM
COc1ccccc1-c1cc(-c2ccc(O)cc2)nc(N)c1C#N [Example 145]	183 µM
N#Cc1c(-c2ccccc2O)cc(-c2ccco2)nc1N [Example 146]	185 µM
COC(=O)c1cccc(-c2c(C#N)c(N)nc3c2CCc2[nH]ncc2-3)c1 [Example 147]	191 µM
Cc1ccc(-c2cc(-c3ccccc3Cl)c(C#N)c(N)n2)o1 [Example 148]	192 µM
COC(=O)c1ccc(-c2cc(-c3ccco3)c(C#N)c(N)n2)cc1 [Example 150]	199 µM

— patent US20040127519A1 (Pharmacia Corporation, priority 2002, published 2004)
